# Measurements taken from US12497365B2, “4-pyridinyl formamide compound or derivative thereof, preparation method therefor, herbicidal composition and use thereof” (Qingdao Kingagroot Chemical Compound Co., Ltd., priority 2019, dated 2025).
# Assays:
# Assay in all cases: Weeding effect in post-emergence stage
# Type in all cases: in vivo
# Settings in all cases: active ingredient 2000 g/ha, 3 weeks after application, fresh weight control rate
# [1] = tested on: Abutilon theophrasti
# Description: (§1) The activity level criteria for plant damage (i.e., growth control rate) are as follows:
# (§2) The above growth control rates are fresh weight control rates.
# (§3) Experiment on weeding effect in post-emergence stage: monocotyledonous and dicotyledonous weed seeds and major crop seeds (wheat, corn, rice, soybean, cotton, oilseed rape, millet, sorghum) were placed in plastic pots filled with soil, then covered with 0.5-2 cm of soil, allowed to grow in a good greenhouse environment. After 2 weeks of sowing, the test plants were treated in the 2-3 leaf stage. The tested compounds of the present invention were respectively dissolved in acetone at the dosage of 2000, 1000, 500, 250, 125 g/ha, then added with Tween 80 and 1.5 liter/ha of emulsifiable concentrate of methyl oleate as synergist, diluted with a certain amount of water to obtain a solution with a certain concentration, and sprayed with a spray tower onto the plants. After the application, the plants were cultured for 3 weeks in the greenhouse, and then the experimental results were listed in Table 1.
# [2] = tested on: Amaranthus retroflexus L.
# Description: as §1, §2, §3
# [3] = tested on: Chenopodium album
# Description: as §1, §2, §3
# [4] = tested on: Descurainia sophia
# Description: as §1, §2, §3
Structure (SMILES),"Weeding effect, activity level (growth control rate), Abutilon theophrasti [1]","Weeding effect, activity level (growth control rate), Amaranthus retroflexus L. [2]","Weeding effect, activity level (growth control rate), Chenopodium album [3]","Weeding effect, activity level (growth control rate), Descurainia sophia [4]"
COc1ccc(-c2nccc(C(=O)Nc3nnnn3C)c2Cl)cn1 [Compound 1-143],5 (Level 5: growth control rate is above 85%),5 (Level 5: growth control rate is above 85%),5 (Level 5: growth control rate is above 85%),5 (Level 5: growth control rate is above 85%)
Cn1nnnc1NC(=O)c1ccnc(-c2ccc(Cl)cc2C(F)(F)F)c1Cl [Compound 1-101],5 (Level 5: growth control rate is above 85%),5 (Level 5: growth control rate is above 85%),5 (Level 5: growth control rate is above 85%),5 (Level 5: growth control rate is above 85%)
Cn1nnnc1NC(=O)c1ccnc(-c2cc(Cl)nc(Cl)c2)c1Cl [Compound 1-153],5 (Level 5: growth control rate is above 85%),5 (Level 5: growth control rate is above 85%),5 (Level 5: growth control rate is above 85%),5 (Level 5: growth control rate is above 85%)
COC(=O)c1cc(-c2nccc(C(=O)Nc3nnnn3C)c2Cl)ccc1Cl [Compound 1-98],5 (Level 5: growth control rate is above 85%),5 (Level 5: growth control rate is above 85%),5 (Level 5: growth control rate is above 85%),5 (Level 5: growth control rate is above 85%)
CCn1cc(-c2nccc(C(=O)Nc3nnnn3C)c2Cl)cn1 [Compound 1-172],5 (Level 5: growth control rate is above 85%),5 (Level 5: growth control rate is above 85%),5 (Level 5: growth control rate is above 85%),5 (Level 5: growth control rate is above 85%)
CCc1ccccc1-c1nccc(C(=O)Nc2nnnn2C)c1Cl [Compound 1-12],5 (Level 5: growth control rate is above 85%),5 (Level 5: growth control rate is above 85%),5 (Level 5: growth control rate is above 85%),5 (Level 5: growth control rate is above 85%)
COc1ccc(Cl)c(-c2nccc(C(=O)Nc3nnnn3C)c2Cl)c1 [Compound 1-103],5 (Level 5: growth control rate is above 85%),5 (Level 5: growth control rate is above 85%),5 (Level 5: growth control rate is above 85%),5 (Level 5: growth control rate is above 85%)
Cn1nnnc1NC(=O)c1ccnc(-c2cc(C#N)ccc2F)c1Cl [Compound 1-82],5 (Level 5: growth control rate is above 85%),5 (Level 5: growth control rate is above 85%),5 (Level 5: growth control rate is above 85%),5 (Level 5: growth control rate is above 85%)
C=CC(=O)Nc1cccc(-c2nccc(C(=O)Nc3nnnn3C)c2Cl)c1 [Compound 1-48],5 (Level 5: growth control rate is above 85%),5 (Level 5: growth control rate is above 85%),5 (Level 5: growth control rate is above 85%),5 (Level 5: growth control rate is above 85%)
Cn1nnnc1NC(=O)c1ccnc(Oc2ccccc2)c1Cl [Compound 1-2063],5 (Level 5: growth control rate is above 85%),5 (Level 5: growth control rate is above 85%),5 (Level 5: growth control rate is above 85%),5 (Level 5: growth control rate is above 85%)
Cn1nnnc1NC(=O)c1ccnc(-c2ccc(F)cc2)c1-c1ccccc1 [Compound 1-199],5 (Level 5: growth control rate is above 85%),5 (Level 5: growth control rate is above 85%),5 (Level 5: growth control rate is above 85%),5 (Level 5: growth control rate is above 85%)
Cc1c(C(=O)Nc2nnnn2C)ccnc1-c1ccc(F)cc1 [Compound 1-194],5 (Level 5: growth control rate is above 85%),5 (Level 5: growth control rate is above 85%),5 (Level 5: growth control rate is above 85%),5 (Level 5: growth control rate is above 85%)
Cn1nnnc1NC(=O)c1ccnc(-c2cnc(Cl)nc2)c1Cl [Compound 1-157],5 (Level 5: growth control rate is above 85%),5 (Level 5: growth control rate is above 85%),5 (Level 5: growth control rate is above 85%),5 (Level 5: growth control rate is above 85%)
Cn1nnnc1NC(=O)c1ccnc(-c2ccco2)c1Cl [Compound 1-184],5 (Level 5: growth control rate is above 85%),5 (Level 5: growth control rate is above 85%),5 (Level 5: growth control rate is above 85%),5 (Level 5: growth control rate is above 85%)
Cn1nnnc1NC(=O)c1ccnc(-c2ccccc2-c2ccccc2)c1Cl [Compound 1-52],5 (Level 5: growth control rate is above 85%),5 (Level 5: growth control rate is above 85%),5 (Level 5: growth control rate is above 85%),5 (Level 5: growth control rate is above 85%)
Cn1nnnc1NC(=O)c1ccnc(-c2ncc(C#N)cn2)c1Cl [Compound 1-163],5 (Level 5: growth control rate is above 85%),5 (Level 5: growth control rate is above 85%),5 (Level 5: growth control rate is above 85%),5 (Level 5: growth control rate is above 85%)
COc1ccc(-c2nccc(C(=O)Nc3nnnn3C)c2Cl)c(OC)c1 [Compound 1-105],5 (Level 5: growth control rate is above 85%),5 (Level 5: growth control rate is above 85%),5 (Level 5: growth control rate is above 85%),5 (Level 5: growth control rate is above 85%)
Cn1nnnc1NC(=O)c1ccnc(-c2cccnc2Cl)c1Cl [Compound 1-130],5 (Level 5: growth control rate is above 85%),5 (Level 5: growth control rate is above 85%),5 (Level 5: growth control rate is above 85%),5 (Level 5: growth control rate is above 85%)
Cn1nnnc1NC(=O)c1ccnc(-c2ccc(Cl)c(F)c2)c1Cl [Compound 1-91],5 (Level 5: growth control rate is above 85%),5 (Level 5: growth control rate is above 85%),5 (Level 5: growth control rate is above 85%),5 (Level 5: growth control rate is above 85%)
O=C(Nc1ccon1)c1ccnc(-c2ccc(F)cc2)c1Cl [Compound 1-1286],5 (Level 5: growth control rate is above 85%),5 (Level 5: growth control rate is above 85%),5 (Level 5: growth control rate is above 85%),5 (Level 5: growth control rate is above 85%)
Cn1nnnc1NC(=O)c1ccnc(-c2ccc(C#N)s2)c1Cl [Compound 1-192],5 (Level 5: growth control rate is above 85%),5 (Level 5: growth control rate is above 85%),5 (Level 5: growth control rate is above 85%),5 (Level 5: growth control rate is above 85%)
